In one assay the target is RgpB (Porphyromonas gingivalis, UniProt P95493). As to conditions: comparison value, cited from earlier work.
Assay [1] relates to Arginine-gingipains (P. gingivalis W50 whole cell proteases). The class given is cell-based, Porphyromonas gingivalis W50.
The target of assay [2] is Lysine-gingipains (P. gingivalis ATCC 33277 whole cell proteases) (Porphyromonas gingivalis, UniProt B2RLK2). It is filed as cell-based, Porphyromonas gingivalis ATCC 33277. Conditions: for Activity with ATCC33277, Lys-gingipains: peptide alone 100 μM, activity ± standard deviation.
Assay [3] relates to Arginine-gingipains (P. gingivalis ATCC 33277 whole cell proteases). It is filed as cell-based, Porphyromonas gingivalis ATCC 33277.
Setting [4] is: 200 μM peptide concentration (FIG. 2, Table 2).

“And” between values parts separate entries of the source, which are not always exact repeats. Identical values can stand only once. Like-named read-outs stand apart in the source and are kept apart here. Ends that are not written are not given here.

A word on the Ki: it is a dissociation constant, usually derived from enzyme kinetics or from competition with a known ligand. On to `[H]/N=C(\N/C(=N/[H])NCCCCCCNC(=N)NC(=N)Nc1ccc(Cl)cc1)Nc1ccc(Cl)cc1` [chlorhexidine], for which the Ki at RgpB (read-out: RgpB Ki) was 262 µM.
As usually defined, the IC50 is the point on the concentration scale where inhibition reaches its midpoint. `C[C@H]1c2cccc(O)c2C(=O)C2=C(O)[C@]3(O)C(=O)C(C(N)=O)=C(O)[C@@H](N(C)C)[C@@H]3[C@@H](O)[C@@H]21` [doxycycline]: the IC50 on RgpB (read-out: IC50 against RgpB) was 3 µM.
LPQEVLNENLLRF [αS1-casein(11-23)]: the “Protease activity (%) of the Arginine-gingipains, W50 Whole Cell Proteases” value in assay [1] is reported as 22%. For the same compound, the “Protease activity (%) of the Lysine-gingipains, ATCC 33277 Whole Cell Proteases” value in assay [2] (100 μM peptide) is 64%; in assay [2] (200 μM peptide), 43%; in assay [2] (300 μM peptide) it was 34%. The “inhibition of whole cell Lys-specific proteolytic activity” value in assay [2] (setting [4]) and in assay [2] (concentration not given) was approximately 60% throughout. The “Activity with ATCC33277, Lys-gingipains” value in assay [2] came to 2.73 ± 0.60. Also, the “Activity with ATCC33277, Arg-gingipains” value in assay [3] stood at 18.00 ± 3.53. The “Protease activity (%) of the Arginine-gingipains, ATCC 33277 Whole Cell Proteases” value in assay [3] is 38% and 39% and 62%. For the same compound, in assay [3], the “inhibition of whole cell Arg-specific proteolytic activity” value was ~70% and 40% and ~60%.
As to YQEPVLGPVRGPF [β-casein(193-205)], the “inhibition of whole cell Lys-specific proteolytic activity” value in assay [2] (concentration not given) is “not as potent”.
Turning to YQEPVLGPVRGPFPIIV [β-casein(193-209)], the “Protease activity (%) of the Arginine-gingipains, W50 Whole Cell Proteases” value in assay [1] was 46%. The “Protease activity (%) of the Lysine-gingipains, ATCC 33277 Whole Cell Proteases” value in assay [2] (100 μM peptide) was 71%; in assay [2] (200 μM peptide) it was 59%; in assay [2] (300 μM peptide) it was 49%. Moreover, the “inhibition of whole cell Lys-specific proteolytic activity” value is given as 50% in assay [2] (setting [4]) and 40-50% in assay [2] (concentration not given). The “Activity with ATCC33277, Lys-gingipains” value in assay [2] was 3.03 ± 1.20. Moreover, the “Activity with ATCC33277, Arg-gingipains” value in assay [3] is on record as 20.03 ± 2.51. In addition, in assay [3], the “Protease activity (%) of the Arginine-gingipains, ATCC 33277 Whole Cell Proteases” value was 50% and 69%. Further, the “inhibition of whole cell Arg-specific proteolytic activity” value in assay [3] was 50% and 30% and 40-50%.

Values taken from patent publication US20110104179A1 (priority 2009, published 2011).
